Experimental data as given in ChEMBL document CHEMBL2074450 (J Pharmacol Exp Ther, 2002).

Target: ATP-dependent translocase ABCB1 (Homo sapiens, UniProt P08183)
Test: TP_TRANSPORTER: transepithelial transport (basal to apical) in HCT-8 cells
Format: functional, cell-based

Sequence of ATP-dependent translocase ABCB1 (P08183 whole entry): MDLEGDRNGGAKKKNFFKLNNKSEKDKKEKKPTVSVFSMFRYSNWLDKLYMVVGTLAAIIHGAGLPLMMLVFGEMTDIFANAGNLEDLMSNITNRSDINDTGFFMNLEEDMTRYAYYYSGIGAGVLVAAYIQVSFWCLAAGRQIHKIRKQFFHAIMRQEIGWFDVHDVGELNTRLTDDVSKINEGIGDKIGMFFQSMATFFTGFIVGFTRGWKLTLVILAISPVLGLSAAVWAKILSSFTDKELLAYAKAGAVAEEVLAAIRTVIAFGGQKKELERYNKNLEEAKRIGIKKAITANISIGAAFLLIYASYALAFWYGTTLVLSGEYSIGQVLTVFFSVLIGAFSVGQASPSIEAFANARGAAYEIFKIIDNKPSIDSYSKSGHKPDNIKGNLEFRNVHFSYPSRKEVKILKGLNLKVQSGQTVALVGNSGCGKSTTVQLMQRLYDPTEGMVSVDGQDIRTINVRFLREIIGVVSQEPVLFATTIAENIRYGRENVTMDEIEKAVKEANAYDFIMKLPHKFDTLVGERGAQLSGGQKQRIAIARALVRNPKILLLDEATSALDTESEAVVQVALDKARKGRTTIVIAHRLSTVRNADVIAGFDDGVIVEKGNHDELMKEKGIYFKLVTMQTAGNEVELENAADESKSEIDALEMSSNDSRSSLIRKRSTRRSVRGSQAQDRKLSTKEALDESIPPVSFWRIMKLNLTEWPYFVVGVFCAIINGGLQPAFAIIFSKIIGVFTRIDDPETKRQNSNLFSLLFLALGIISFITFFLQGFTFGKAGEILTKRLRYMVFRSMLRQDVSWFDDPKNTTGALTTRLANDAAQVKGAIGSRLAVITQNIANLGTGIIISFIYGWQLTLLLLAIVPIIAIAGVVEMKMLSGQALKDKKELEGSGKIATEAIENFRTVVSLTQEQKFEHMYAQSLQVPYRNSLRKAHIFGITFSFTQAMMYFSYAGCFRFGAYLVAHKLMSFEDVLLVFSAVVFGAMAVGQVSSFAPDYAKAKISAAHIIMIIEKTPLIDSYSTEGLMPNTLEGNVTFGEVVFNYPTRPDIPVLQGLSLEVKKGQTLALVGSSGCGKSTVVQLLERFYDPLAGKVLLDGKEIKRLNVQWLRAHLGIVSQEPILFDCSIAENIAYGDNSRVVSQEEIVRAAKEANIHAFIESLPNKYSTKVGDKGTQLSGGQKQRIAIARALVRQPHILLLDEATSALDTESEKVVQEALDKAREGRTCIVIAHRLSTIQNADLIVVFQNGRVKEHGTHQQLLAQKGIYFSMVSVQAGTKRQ

CO[C@H]1C[C@@H]2CC[C@@H](C)[C@@](O)(O2)C(=O)C(=O)N2CCCC[C@H]2C(=O)O[C@H]([C@H](C)C[C@@H]2CC[C@@H](O)[C@H](OC)C2)CC(=O)[C@H](C)/C=C(\C)[C@@H](O)[C@@H](OC)C(=O)[C@H](C)C[C@H](C)/C=C/C=C/C=C/1C [SIROLIMUS]
Activity: is not a substrate [-]
